Reference: ChEMBL document CHEMBL1201862, “PubChem BioAssay data set” (2004)
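Tested at 5 concentrations; 48 h exposure; 96-well plates; endpoints linearly interpolated, else capped at highest concentration. GI50 marks 50% less growth.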 Active and inactive are the calls of the source. Rule as the data show it: active = GI50 up to about 1.1 µM and inactive = higher.

Tests used:
Experiment in all cases: growth of human tumour cells (NCI), 48 h
NCI-H522 = system: NCI-H522
SK-OV-3 = system: SK-OV-3
NCI-H460 = system: NCI-H460
CAKI-1 = system: CAKI-1
TK-10 = system: TK-10
OVCAR-5 = system: OVCAR-5
SNB-19 = system: SNB-19
ACHN = system: ACHN
DU-145 = system: DU-145
A549 = system: A549
SK-MEL-2 = system: SK-MEL-2
COLO 205 = system: COLO 205
NCI-H23 = system: NCI-H23
SF-295 = system: SF-295
NCI-H226 = system: NCI-H226
HT-29 = system: HT-29
SNB-75 = system: SNB-75
HCC 2998 = system: HCC 2998
NCI/ADR-RES = system: NCI/ADR-RES
HL-60 = system: HL-60

Measured: GI50

O=C(O)c1nc(-c2ccccc2)[nH]c1C(=O)O
inactive: NCI-H522 13.1 µM | SK-OV-3 18.4 µM | NCI-H460 15.4 µM | CAKI-1 14.4 µM | TK-10 15.5 µM | OVCAR-5 17.2 µM | SNB-19 12.5 µM | ACHN 16.8 µM | DU-145 15 µM | A549 14 µM | SK-MEL-2 7.76 µM | COLO 205 17 µM | NCI-H23 13.9 µM | SF-295 16.7 µM | NCI-H226 14.8 µM | HT-29 7.03 µM | SNB-75 19.4 µM | HCC 2998 5.94 µM | NCI/ADR-RES 27.7 µM

CSc1ncc2c(n1)sc1c(=O)n(-c3ccccc3)cnc12
inactive: NCI-H522 > 100 µM | SK-OV-3 > 100 µM | NCI-H460 > 100 µM | CAKI-1 > 100 µM | TK-10 > 100 µM | OVCAR-5 > 100 µM | SNB-19 > 100 µM | ACHN > 100 µM | DU-145 > 100 µM | A549 > 100 µM | SK-MEL-2 > 100 µM | COLO 205 > 100 µM | NCI-H23 > 100 µM | SF-295 > 100 µM | NCI-H226 > 100 µM | HT-29 > 100 µM | SNB-75 > 100 µM | HCC 2998 > 100 µM | NCI/ADR-RES > 100 µM

C=CC[C@@H](N)C(=O)N(C)[C@@H](C)[C@@H](O)c1ccccc1
inactive: NCI-H522 12.4 µM | SK-OV-3 > 100 µM | NCI-H460 > 100 µM | CAKI-1 > 100 µM | TK-10 > 100 µM | SNB-19 > 100 µM | ACHN > 100 µM | DU-145 > 100 µM | A549 > 100 µM | SK-MEL-2 > 100 µM | COLO 205 > 100 µM | NCI-H23 > 100 µM | SF-295 > 100 µM | HL-60 > 100 µM | NCI-H226 > 100 µM | SNB-75 5.77 µM | NCI/ADR-RES > 100 µM

CC(C)CNP(=O)(NCC(C)C)Oc1ccc(CC(NC(=O)OCc2ccccc2)C(=O)OCc2ccccc2)cc1 (centres undefined)
inactive: NCI-H522 13.4 µM | SK-OV-3 15.2 µM | NCI-H460 18.1 µM | CAKI-1 > 100 µM | TK-10 31.4 µM | OVCAR-5 > 100 µM | SNB-19 25.2 µM | ACHN 16.9 µM | DU-145 9.46 µM | A549 47.5 µM | SK-MEL-2 18.5 µM | COLO 205 19.2 µM | NCI-H23 15.3 µM | SF-295 18.5 µM | NCI-H226 56.1 µM | HT-29 17.2 µM | SNB-75 19.5 µM | HCC 2998 16.8 µM | NCI/ADR-RES 28.8 µM

Cn1c2ccc([N+](=O)[O-])cc2c(=O)c2c(O)cc(O)cc21
inactive: NCI-H522 7.74 µM | NCI-H460 24.9 µM | CAKI-1 43 µM | TK-10 66.2 µM | OVCAR-5 > 100 µM | SNB-19 18.1 µM | ACHN 33.1 µM | DU-145 47.8 µM | A549 29.4 µM | SK-MEL-2 > 10 µM | COLO 205 > 100 µM | SF-295 15.3 µM | HL-60 > 100 µM | NCI-H226 53.2 µM | SNB-75 4.15 µM | HCC 2998 > 100 µM | NCI/ADR-RES 17 µM

N#CCCN(C(=O)Nc1ccccc1)[C@H]1CCCC[C@@H]1N(C(=O)Nc1ccccc1)c1ccccc1
inactive: NCI-H522 71.1 µM | SK-OV-3 > 100 µM | NCI-H460 48.2 µM | CAKI-1 > 100 µM | TK-10 > 100 µM | OVCAR-5 > 100 µM | SNB-19 22.2 µM | ACHN > 100 µM | DU-145 > 100 µM | A549 58.1 µM | SK-MEL-2 > 100 µM | COLO 205 83 µM | NCI-H23 > 100 µM | SF-295 55.7 µM | NCI-H226 77.8 µM | HT-29 43 µM | SNB-75 16.7 µM | HCC 2998 73.3 µM | NCI/ADR-RES > 100 µM

Nn1c(S)nnc1-c1ccccc1Nc1ccccc1-c1nnc(S)n1N
inactive: NCI-H522 > 50 µM | NCI-H460 > 50 µM | TK-10 > 50 µM | OVCAR-5 > 50 µM | SNB-19 > 50 µM | ACHN > 50 µM | DU-145 > 50 µM | SK-MEL-2 > 50 µM | COLO 205 > 50 µM | NCI-H23 > 50 µM | SF-295 > 50 µM | HL-60 > 50 µM | NCI-H226 > 50 µM | HT-29 > 50 µM | SNB-75 > 50 µM | HCC 2998 > 50 µM | NCI/ADR-RES > 50 µM

Cn1c2ccccc2c2c3c(c4c5ccccc5n(C)c4c21)C(=O)N(c1ccccc1)C3=O
inactive: NCI-H522 44.4 µM | SK-OV-3 > 100 µM | NCI-H460 > 100 µM | CAKI-1 > 100 µM | TK-10 > 100 µM | OVCAR-5 > 100 µM | SNB-19 > 100 µM | ACHN > 100 µM | DU-145 > 100 µM | A549 > 100 µM | SK-MEL-2 > 100 µM | COLO 205 > 100 µM | NCI-H23 > 100 µM | SF-295 > 100 µM | NCI-H226 > 100 µM | HT-29 > 100 µM | SNB-75 > 100 µM | HCC 2998 > 100 µM | NCI/ADR-RES > 100 µM

CC(=O)OCC(=O)[C@@]12OC(C)(C)O[C@@H]1C[C@H]1[C@@H]3CC=C4C[C@@H](O)CC[C@]4(C)[C@H]3CC[C@@]12C
inactive: NCI-H522 57.9 µM | SK-OV-3 38.3 µM | CAKI-1 > 100 µM | TK-10 40.3 µM | OVCAR-5 > 100 µM | SNB-19 39.9 µM | ACHN 92.9 µM | DU-145 49.2 µM | A549 > 100 µM | SK-MEL-2 > 100 µM | COLO 205 > 100 µM | NCI-H23 57.7 µM | SF-295 33.1 µM | HL-60 > 100 µM | NCI-H226 > 100 µM | HT-29 > 100 µM | SNB-75 13.9 µM | NCI/ADR-RES 66.5 µM

CCc1n[nH]c(=O)n1-c1ccc2ccccc2c1
inactive: NCI-H522 > 100 µM | SK-OV-3 > 100 µM | NCI-H460 > 100 µM | CAKI-1 > 100 µM | TK-10 > 100 µM | OVCAR-5 > 100 µM | SNB-19 > 100 µM | ACHN > 100 µM | DU-145 > 100 µM | A549 > 100 µM | SK-MEL-2 > 100 µM | COLO 205 > 100 µM | NCI-H23 > 100 µM | SF-295 > 100 µM | NCI-H226 > 100 µM | HT-29 > 100 µM | SNB-75 > 100 µM | HCC 2998 > 100 µM | NCI/ADR-RES > 100 µM

CC(C)(OCc1ccccc1)c1ccccc1P(c1ccccc1)c1ccccc1
inactive: NCI-H522 42.8 µM | SK-OV-3 > 100 µM | NCI-H460 49.7 µM | CAKI-1 31.7 µM | TK-10 37.1 µM | OVCAR-5 > 100 µM | SNB-19 69 µM | ACHN 44.8 µM | DU-145 82.6 µM | A549 38.7 µM | SK-MEL-2 73.5 µM | COLO 205 27 µM | NCI-H23 21.7 µM | SF-295 44.8 µM | HL-60 13.5 µM | NCI-H226 69.2 µM | HT-29 30.1 µM | SNB-75 > 100 µM | NCI/ADR-RES 50.7 µM

CC1=CCC(C)=Nc2nc3ccccc3n21
inactive: NCI-H522 > 100 µM | SK-OV-3 > 100 µM | NCI-H460 > 100 µM | CAKI-1 > 100 µM | TK-10 > 100 µM | OVCAR-5 > 100 µM | SNB-19 > 100 µM | ACHN > 100 µM | DU-145 > 100 µM | A549 > 100 µM | SK-MEL-2 > 100 µM | COLO 205 > 100 µM | NCI-H23 > 100 µM | SF-295 > 100 µM | HL-60 > 100 µM | NCI-H226 > 100 µM | HT-29 > 100 µM | NCI/ADR-RES > 100 µM

COc1cc(O)cc(/C=C/c2ccc(O)cc2)c1
inactive: NCI-H522 30.1 µM | SK-OV-3 > 100 µM | NCI-H460 44.7 µM | CAKI-1 33.7 µM | TK-10 29.4 µM | OVCAR-5 > 100 µM | SNB-19 36.6 µM | ACHN 6.31 µM | DU-145 39 µM | A549 27.7 µM | SK-MEL-2 52.7 µM | COLO 205 > 100 µM | NCI-H23 26.7 µM | SF-295 25.7 µM | HL-60 27.2 µM | NCI-H226 24.7 µM | HT-29 40.4 µM | SNB-75 90.4 µM | NCI/ADR-RES 38.9 µM

CN(C)CCCN1c2ccc(O)cc2Sc2ccc(Cl)cc21 [7-HYDROXYCHLORPROMAZINE]
inactive: NCI-H522 11.4 µM | SK-OV-3 17.4 µM | NCI-H460 3.82 µM | CAKI-1 4.2 µM | TK-10 12.3 µM | OVCAR-5 15.1 µM | SNB-19 13.3 µM | ACHN 14.8 µM | DU-145 17.9 µM | A549 13.5 µM | SK-MEL-2 6.04 µM | COLO 205 20.8 µM | NCI-H23 17.7 µM | SF-295 15.3 µM | HL-60 13.9 µM | NCI-H226 11.3 µM | HT-29 3.48 µM | SNB-75 8.63 µM | NCI/ADR-RES 14.7 µM

C=C(C)[C@@H]1CC[C@]2(C(=O)OC)CC[C@]3(C)[C@H](CC[C@@H]4[C@@]5(C)CC[C@H](O)C(C)(C)[C@@H]5CC[C@]43C)[C@@H]12 [METHYL BETULINATE]
inactive: NCI-H522 18.9 µM | NCI-H460 18.5 µM | CAKI-1 20.8 µM | TK-10 > 10 µM | OVCAR-5 26.8 µM | SNB-19 18.7 µM | ACHN 16.9 µM | DU-145 39.8 µM | A549 17.7 µM | NCI-H23 30.3 µM | SF-295 18.4 µM | HL-60 35.5 µM | NCI-H226 20 µM | HT-29 20.5 µM | SNB-75 21.6 µM | NCI/ADR-RES 19 µM
